Data reported in PubChem BioAssay AID248 (DTP/NCI, 2004).
Several values for one entry are separate records, joined by “and”; a condition that tells them apart may be missing. Equal values may be shown once. Inconclusive results and toxic doses are left out. No stated cut-off is given here; in the data, active means T/C of 150% or more; inactive means T/C below 125%.

System: L1210 leukemia ip in BDF1 mice, survival T/C
Assay: NCI In Vivo Anticancer Drug Screen. Data for tumor model L1210 Leukemia (intraperitoneal) in B6D2F1 (BDF1) mice
Conditions: endpoint: mean survival time, higher = longer survival
Summary of the method: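 Each compound was tested against a transplantable tumor grown in mice. The endpoint was survival, with treated animals benchmarked against vehicle controls as a simple ratio.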

[1] = dose: 50.0 mg/kg/injection, schedule: Q01DX001 (ip), vehicle: saline
[2] = dose: 100.0 mg/kg/injection, schedule: Q01DX001 (ip), vehicle: saline
[3] = dose: 200.0 mg/kg/injection, schedule: Q01DX001 (ip), vehicle: saline
[4] = dose: 400.0 mg/kg/injection, schedule: Q01DX001 (ip), vehicle: saline
[5] = dose: 100.0 mg/kg/injection, schedule: Q01DX009 (ip), vehicle: Klucel (hydroxypropylcellulose) (HPC)
[6] = dose: 100.0 mg/kg/injection, schedule: Q04DX003 (ip), vehicle: Klucel (hydroxypropylcellulose) (HPC)
[7] = dose: 200.0 mg/kg/injection, schedule: Q01DX009 (ip), vehicle: Klucel (hydroxypropylcellulose) (HPC)
[8] = dose: 200.0 mg/kg/injection, schedule: Q04DX003 (ip), vehicle: Klucel (hydroxypropylcellulose) (HPC)
[9] = dose: 400.0 mg/kg/injection, schedule: Q01DX009 (ip), vehicle: Klucel (hydroxypropylcellulose) (HPC)
[10] = dose: 400.0 mg/kg/injection, schedule: Q04DX003 (ip), vehicle: Klucel (hydroxypropylcellulose) (HPC)
[11] = dose: 100.0 mg/kg/injection, schedule: Q04DX002 (ip), vehicle: Klucel (hydroxypropylcellulose) (HPC)
[12] = dose: 200.0 mg/kg/injection, schedule: Q04DX002 (ip), vehicle: Klucel (hydroxypropylcellulose) (HPC)
[13] = dose: 400.0 mg/kg/injection, schedule: Q04DX002 (ip), vehicle: Klucel (hydroxypropylcellulose) (HPC)
[14] = dose: 100.0 mg/kg/injection, schedule: Q04DX003 (ip), vehicle: saline with Tween-80
[15] = dose: 200.0 mg/kg/injection, schedule: Q04DX003 (ip), vehicle: saline with Tween-80
[16] = dose: 400.0 mg/kg/injection, schedule: Q04DX003 (ip), vehicle: saline with Tween-80
[17] = dose: 100.0 mg/kg/injection, schedule: Q01DX001 (ip), vehicle: carboxymethylcellulose (CMC)
[18] = dose: 200.0 mg/kg/injection, schedule: Q01DX001 (ip), vehicle: carboxymethylcellulose (CMC)
[19] = dose: 100.0 mg/kg/injection, schedule: Q04DX003 (ip), vehicle: saline
[20] = dose: 200.0 mg/kg/injection, schedule: Q04DX003 (ip), vehicle: saline
[21] = dose: 400.0 mg/kg/injection, schedule: Q04DX003 (ip), vehicle: saline

Measured: T/C

CS(=O)(=O)OCCN(CCOS(C)(=O)=O)c1cccc(C(F)(F)F)c1
inactive: dose: 5.0 mg/kg/injection, schedule: Q01DX001 (ip), vehicle: saline 96 % of control | dose: 10.0 mg/kg/injection, schedule: Q01DX001 (ip), vehicle: saline 100 % of control | dose: 11.0 mg/kg/injection, schedule: Q01DX015 (ip), vehicle: saline 101 % of control | dose: 17.0 mg/kg/injection, schedule: Q01DX015 (ip), vehicle: saline 110 % of control | dose: 20.0 mg/kg/injection, schedule: Q01DX001 (ip), vehicle: saline 102 % of control | dose: 25.0 mg/kg/injection, schedule: Q01DX015 (ip), vehicle: saline 116 % of control | [1] 124 % of control | [2] 124 % of control | [3] 120 % of control | [4] 86 % of control

CC(C1CCCC1)C1CCCC1
inactive: dose: 100.0 mg/kg/injection, schedule: Q04DX002 (ip), vehicle: saline with Tween-80 96 % of control | dose: 200.0 mg/kg/injection, schedule: Q04DX002 (ip), vehicle: saline with Tween-80 90 % of control | dose: 400.0 mg/kg/injection, schedule: Q04DX002 (ip), vehicle: saline with Tween-80 109 % of control

CCCCNCCC(SSSC(CCNCCCC)c1ccc(Cl)cc1)c1ccc(Cl)cc1 (centres undefined)
inactive: dose: 6.25 mg/kg/injection, schedule: Q04DX003 (ip), vehicle: saline with Tween-80 103 % of control | dose: 12.5 mg/kg/injection, schedule: Q04DX003 (ip), vehicle: saline with Tween-80 88 % of control | dose: 25.0 mg/kg/injection, schedule: Q04DX003 (ip), vehicle: saline with Tween-80 91 % of control

Cc1cccc(C2CCCC2c2ccccc2)c1 (centres undefined)
inactive: [5] 96 % of control | [6] 110 % of control | [7] 89 % of control | [8] 94 % of control | [9] 101 % of control | [10] 108 % of control

Cn1cnc2c(=O)[nH]nnc21
inactive: dose: 100.0 mg/kg/injection, schedule: Q01DX005 (ip), vehicle: saline 96 % of control | dose: 200.0 mg/kg/injection, schedule: Q01DX005 (ip), vehicle: saline 112 % of control

COc1cccc(OC)c1OC
inactive: dose: 87.5 mg/kg/injection, schedule: Q01DX009 (ip), vehicle: Klucel (hydroxypropylcellulose) (HPC) 106 % of control | dose: 175.0 mg/kg/injection, schedule: Q01DX009 (ip), vehicle: Klucel (hydroxypropylcellulose) (HPC) 100 % of control | dose: 350.0 mg/kg/injection, schedule: Q01DX009 (ip), vehicle: Klucel (hydroxypropylcellulose) (HPC) 97 % of control

Cc1nc2cc(N=Cc3ccc(N(CCCl)CCCl)cc3F)ccc2n1C
inactive: [11] 104 % of control | [12] 101 % of control | [13] 104 % of control

O=Cc1ccc[nH]1
inactive: dose: 100.0 mg/kg/injection, schedule: Q04DX003 (ip), vehicle: other 93 % of control | dose: 200.0 mg/kg/injection, schedule: Q04DX003 (ip), vehicle: other 96 % of control | dose: 400.0 mg/kg/injection, schedule: Q04DX003 (ip), vehicle: other 110 % of control

CC(=O)c1ccc(OCc2ccccc2)cc1OCC(O)CN1CCN(c2ccc(C)c(C)c2)CC1 (centres undefined)
inactive: [14] 97 % of control | [15] 95 % of control | [16] 92 % of control

O=C(O)C1C2CCC(O2)C1C(=O)O (centres undefined)
inactive: [17] 91 % of control | [14] 100 % of control | [18] 88 % of control | [15] 96 % of control | [16] 102 % of control

CC1(C)C2CCC(CC(=O)O)C1C2 (centres undefined)
inactive: [14] 101 % of control | [15] 101 % of control

CCc1ccccc1NC(=O)Nc1cc(C)ccn1
inactive: [5] 102 % of control | [11] 102 % of control | [7] 107 % of control | [12] 102 % of control | [9] 102 % of control | [13] 106 % of control

COc1ccc(C2NC(=O)NC2=O)cc1OC (centres undefined)
inactive: dose: 25.0 mg/kg/injection, schedule: Q01DX009 (ip), vehicle: saline sonified 98 % of control | [1] 102 % of control | dose: 50.0 mg/kg/injection, schedule: Q01DX009 (ip), vehicle: saline sonified 106 % of control | [2] 105 % of control | dose: 100.0 mg/kg/injection, schedule: Q01DX009 (ip), vehicle: saline sonified 101 % of control | [19] 95 % of control | [3] 105 % of control | [20] 103 % of control | [4] 105 % of control | [21] 97 % of control

CN=C(NC)c1ccc(NC(=O)c2cc(C(=O)Nc3ccc(C(=NC)NC)cc3)cc([N+](=O)[O-])c2)cc1
inactive: dose: 2.0 mg/kg/injection, schedule: Q01DX Z (ip), vehicle: water 97 % of control | dose: 4.0 mg/kg/injection, schedule: Q01DX Z (ip), vehicle: water 100 % of control | dose: 7.5 mg/kg/injection, schedule: Q01DX Z (ip), vehicle: saline 100 % of control | dose: 7.5 mg/kg/injection, schedule: Q01DX Z (ip), vehicle: water 112 % of control | dose: 15.0 mg/kg/injection, schedule: Q01DX Z (ip), vehicle: saline 96 % of control and 110 % of control | dose: 15.0 mg/kg/injection, schedule: Q01DX Z (ip), vehicle: water 108 % of control

COCCCNCC(=O)N1CCN(C(=O)CNCCCOC)CC1
inactive: dose: 50.0 mg/kg/injection, schedule: Q01DX001 (ip), vehicle: carboxymethylcellulose (CMC) 92 % of control | [17] 92 % of control | [18] 92 % of control | dose: 400.0 mg/kg/injection, schedule: Q01DX001 (ip), vehicle: carboxymethylcellulose (CMC) 95 % of control

O=C(Nc1cccc(C(F)(F)F)c1)N(CCO)Cc1ccccc1
inactive: dose: 100.0 mg/kg/injection, schedule: Q01DX001 (ip), vehicle: Klucel (hydroxypropylcellulose) (HPC) 104 % of control | [5] 100 % of control and 109 % of control | [6] 103 % of control | dose: 200.0 mg/kg/injection, schedule: Q01DX001 (ip), vehicle: Klucel (hydroxypropylcellulose) (HPC) 105 % of control | [7] 100 % of control and 114 % of control | [8] 99 % of control | dose: 400.0 mg/kg/injection, schedule: Q01DX001 (ip), vehicle: Klucel (hydroxypropylcellulose) (HPC) 102 % of control | [9] 93 % of control and 107 % of control | [10] 95 % of control

O=C(O)COc1ccccc1F
inactive: [11] 113 % of control | [12] 98 % of control | [13] 98 % of control

CCC(N)CO (centres undefined)
inactive: [2] 97 % of control | [3] 106 % of control

CC(=O)c1cccc(N)c1
inactive: [5] 94 % of control | [19] 95 % of control | [7] 93 % of control | [20] 95 % of control | [9] 93 % of control | [21] 88 % of control
